Tests used:
[1] = test system: human embryonic kidney (HEK-293) cell lines; assay: MTS cell viability assay, non-cancerous cells; type: cell-based; conditions: Homo sapiens
Description: (§1) The compounds were further screened for their in vitro cytotoxicity against non-cancerous normal cell lines, viz., human embryonic kidney (HEK-293) and normal pig kidney (LLCPK) cell lines. These cell lines were selected to determine whether the compounds had selectivity against cancerous cells in contrast to non-cancerous cells. The data obtained is shown in Figure 3a–b (cf. Supplementary Materials for the data obtained for intermediates and starting materials Figure S28.7–S28.8, page no. 77–78).
(§2) Cell viability assays were performed using the MTS protocol. The in vitro cytotoxicity of the conjugates was evaluated using six human cancer cell lines, one human normal kidney cell line, and one mammalian normal kidney cell line, which included human leukemia carcinoma cell lines (CCRF-CEM), human ovarian adenocarcinoma cell lines (SKOV-3), human breast tumor cell lines (MDA-MB-231), human prostate cancer cell lines (PC-3), androgen-independent human prostate cancer cell lines (DU-145), human renal carcinoma (iSLK), human embryonic kidney cell lines (HEK-293), and normal mammalian kidney cell line (LLCPK) to determine the toxicity of the synthesized conjugates. CCRF-CEM cells were seeded at 50,000 cells in 0.1 mL per well in 96-well plates, and in the case of SKOV-3, MDA-MB-231, PC-3, DU-145, HEK-293, and LLCPK cell lines, the cells were seeded at 5000 cells in 0.1 mL per well in 96-well plates. The CCRF-CEM cells were seeded in RPMI-1640 media containing 2mM L-glutamine, 1.5 g/L sodium bicarbonate, supplemented with fetal bovine serum (FBS) 10% media, SKOV-3, MDA-MB-231, and LLCPK cells were seeded in MEME media with Earle’s salts and sodium bicarbonate, without L-glutamine, supplemented with fetal bovine serum (FBS) 10%, PC-3 cells were seeded in DMEM:F-12 containing 1:1 mixture with L-glutamine with HEPES, supplemented with fetal bovine serum (FBS) 10%, and DU-145 and HEK-293 cells were seeded in DMEM containing 4500 mg/L glucose, L-glutamine, and sodium bicarbonate, without sodium pyruvate, supplemented with FBS (10%), 24 h prior to the experiment. The compounds at a final concentration of 25 µM (higher concentration stock solution prepared in DMSO) were added to each well in triplicate and incubated for 24 and 72 h at 37 °C in a humidified atmosphere (95% air and 5% CO2). The cell viability was then determined by measuring the absorbance of the formazan product at 490 nm using a microplate reader using a SpectraMax M2 microplate spectrophotometer, Molecular Devices, San Jose, CA, USA. The percentage of cell survival was calculated as [(OD value of cells treated with the test mixture of compounds) − (OD value of culture medium)]/[(OD value of control cells) − (OD value of culture medium)] × 100%. IC50 values of compounds were calculated using non-linear regression analysis in GraphPad Prism (Boston, MA, USA).

[2] = test system: normal pig kidney (LLCPK) cell lines; assay: MTS cell viability assay, non-cancerous cells; type: cell-based; conditions: Sus scrofa, conjugates at 25 μM, 72 h
Description: as §1, §2

MDA-MB-231 cells = assay: Annexin V-FITC/PI apoptosis assay by flow cytometry; type: cell-based, human
Experimental: In accordance with the MTS assay, compound 5a had promising antiproliferative action. Therefore, we attempted to study the mechanism triggering cell death. […] MDA-MB-231 cells were treated with 5 μM of compound 5a and Dox (5 μM) as a positive control and incubated for 72 h, then double-stained carefully by membrane-linked protein Annexin-V fluorescein isothiocyanate (FITC) and propidium iodide (PI) for flow cytometry analysis. Normally, in the early stages of apoptosis, phosphatidylserine flips from the inner cell membrane to the surface of the cell membrane. […] PI is a nucleic acid dye that can only cross the membrane of advanced apoptosis and necrotic cells and redden the nucleus. Consequently, when the treated cells are double stained by the two fluorescent dyes, early and late apoptosis and necrotic cells can be clearly distinguished. […] These findings illustrated that compound 5a mainly leads to the early apoptosis of MDA-MB-231 cells.
The assay was detected using a commercially available kit (FITC Annexin V Apoptosis Detection Kit II, BD Biosciences, San Jose, CA, USA) per the manufacturer’s instructions. Briefly, MDA-MB-231 cells were seeded in 6-well plates at a concentration of 1 × 10^6 cells/well for 24 h; after that, cells were treated with 5a (5 µM) for 72 h. Dox (5 µM) was used as a positive control. After the treatment period, cells were washed with cold phosphate-buffered saline (PBS) twice. The cells were collected after trypsin treatment and centrifugated to get a pellet, and a binding buffer (1X) was used to resuspend the cells. Annexin V (5 μL) and propidium iodide (PI) (5 μL) were mixed with 100 μL of the suspended cells (1 × 10^6 cells/mL), followed by 15 min incubation at room temperature in the dark. The mixture was diluted by adding 400 μL of 1× binding buffer, and the cells were analyzed using flow cytometry, FACS Verse (BD Biosciences, USA). The experiment was repeated three times independently.

SMILES: Cc1noc(C)c1C(=O)OCc1coc2ccccc2c1=O [Compound 5a, (4-Oxo-4H-1-benzopyran-3-yl)methyl 3,5-dimethylisoxazole-4-carboxylate]
- IC50 ([1]; HEK293, normal HEK-293 cells, average of three independent tests in triplicate): 293 µM
- inhibition at 25 µM ([1]; HEK293, conjugates at 25 μM, 72 h): 37%
- inhibition at 25 µM [2]: 57%
- induced apoptosis in MDA-MB-231 (MDA-MB-231 cells; 5 μM concentration, compared to untreated cells): 50.8%
- Early Apoptosis (MDA-MB-231 cells; MDA-MB-231, 5 μM, 72 h): 47.52%
- Late Apoptosis (MDA-MB-231 cells; MDA-MB-231, 5 μM, 72 h): 3.28%
